Test results reported in USRE47078E1, “Polymorphic forms of N-[4-(trifluoromethyl)benzyl]-4-methoxybutyramide” (Laboratorio Farmaceutico C.T. S.R.L., priority 2007, dated 2018).
Converted amounts (≈) assume the structure as drawn. “Also recorded” adds a separate entry of the source. Where two headings read alike, the source gives them in different places.

Key:
[1] = Solubility of the polymorphs at different pH (HPLC assay); assay type: physicochemical; conditions: for solubility at 24 h / solubility at 30 min: thermodynamic from solid; for solubility at 24 h: read-out: Solubility, After 24 hours; for solubility at 30 min: read-out: Solubility, Initial evaluation
Protocol: Both samples of powder (Form A and Form B) were used in order to evaluate the solubility properties of the two polymorphs at different pH.
The two samples were tested in the following pH conditions: • Hydrochloric acid buffer at pH=1.2 • Acetic acid at pH=3.0 • Phosphate buffer at pH=3.0 • Phosphate buffer at pH=4.6 • Phosphate buffer at pH=6.0 • Phosphate buffer at pH=7.4 • Alkaline phosphate buffer at pH=8.0
0.5 g of each samples were dissolved in a glass flask using 100 ml of the appropriate buffer. The two samples were then kept under stirring for 30 minutes. If the samples were completed dissolved, 1 additional gram was added in the flask and stirred for 30 minutes. The procedure was repeated till the presence of undissolved product in the bottom of the flask. After such a dissolution procedure, the samples were stored for 24 hours and then the dissolved amounts of Form A and Form B, respectively, were determined by HPLC assay.

[2] = Thermodynamic stability / interconversion of the polymorphs; assay type: physicochemical
rats [3] = experiment: Irwin's test and body temperature in rats; assay type: in vivo, rat
Protocol: (§1) The possible adverse effects of polymorphic Form A on the CNS, cardiovascular, respiratory and immune functions were evaluated in vitro and in vivo (rats and dogs) in different experimental models. In the in vivo tests, the tested compound was always given by single oral administration at the doses of 100, 300 and 1000 mg/kg.
Neurobehavioural effects of polymorphic Form A have been investigated according to the Irwin Test by using a standard observation battery, which allows the assessment of both peripheral and central nervous system activities (e.g. motor activity, motor co-ordination, somatic sensory/motor reflex responses, autonomic responses); body temperature was measured by means of an electronic thermometer.

rats [4] = experiment: Hexobarbital sleeping time in rats; assay type: in vivo, rat
Protocol: as §1
The test consists in the measurement of the duration of hexobarbital-induced sleep; substances with a sedative or antisleep action cause increase or decrease respectively in the duration of hexobarbital induced sleep.

immune system = experiment: PCF test (Plaque Forming Cells) in rats; assay type: in vivo, rat
Protocol: A possible effect of polymorphic Form A on the immune system was evaluated by using the method system of Plaque Forming Cells (PCF) in the rat, following oral administration to rats for 28 days at the doses of 150, 250 and 500 mg/kg. The method is based on the stimulation of the immune system with an antigenic agent (sheep's red blood cells) and on the evaluation of the effect of the test item on the immune response. The immune response was assessed by measuring the proportion of splenocytes which produced antibodies against the antigenic agent (Plaque Forming Cells) in presence of complement. […] In fact, statistical analysis evidenced a significativity at 150 mg/kg, but not at 250 mg/kg; these findings might indicate that the effects is observed at these doses could be due to the variability normally present in this test as heterogeneity in immune response is often seen and it is likely to be related to individual differences in immune sensitivity, […]

Acute toxicity in mouse = conditions: in vivo, single
Protocol: (§2) Single and repeated-dose toxicity studies in rodents and non-rodents were carried out to support the clinical trials of the test compound, i.e. polymorphic Form A. Single toxicity studies were performed in mice and rats by the intraperitoneal and the oral routes. Repeated oral studies (28 days administration followed by 14 days recovery period) were performed in rats and dogs.

Acute toxicity in rat = conditions: in vivo, single
Protocol: as §2

Salmonella typhimurium = experiment: Salmonella Typhimurium Reverse Mutation Assay (Ames test); assay type: cell-based
Protocol: The mutagenic potential of polymorphic Form A was evaluated in vitro in the Salmonella Typhimurium Reverse Mutation Assay according to EC guidelines. […] Therefore polymorphic Form A is to be considered non-mutagenic in this Salmonella typhimurium reverse mutation assay.

Rat (Bone marrow Cells) = experiment: Micronucleus test in rat bone marrow; assay type: in vivo; conditions: os, single, 500-2000 mg/kg, 24 and 48 hours
Protocol: Any clastogenic or spindle poison activity of polymorphic Form A was investigated by detecting micronucleated polychromatic erythrocytes in the bone marrow of treated rats. The study was conducted in compliance with the EC Guidelines. The method involved searching for the presence of a chromosome fragment, or a number of chromosomes, resulting from a deletion or a mitotic spindle poison effect, in the polychromatic erythrocytes in the bone marrow. Clastogenic products may produce, at the moment of mitosis, chromosome breakage, while spindle poisons disturb the structure of the mitotic spindles. An acentric fragment of a chromosome that has not migrated normally is not retained in the nucleus of the daughter cell, and appears in the cytoplasm. It is then known as a Howell-Jolly body or micronucleus. The micronucleus can be detected in polychromatic erythrocytes, as these cells expel their main nucleus shortly after the last mitosis and the micronucleus remains in the red blood cells. Male and female Sprague Dawley rats were treated orally once with 2000-1000-500 mg/kg of polymorphic Form A and 24 and 48 hours after the treatment their femurs were sampled and bone marrow cells were extracted.

[5] = acetic acid, pH 3, aqueous buffer, pH 3.0 (acetic acid)
[6] = alkaline phosphate buffer, pH 8, aqueous buffer, pH 8.0
[7] = buffer at pH 6.8 (buffer type not named for this pH), pH 6.8, aqueous buffer, pH 6.8
[8] = hydrochloric acid buffer, pH 1.2, simulated gastric fluid, pH 1.2
[9] = phosphate buffer, pH 3, aqueous buffer, pH 3.0 (phosphate buffer)
[10] = phosphate buffer, pH 4.6, aqueous buffer, pH 4.6
[11] = phosphate buffer, pH 6, aqueous buffer, pH 6.0
[12] = phosphate buffer, pH 7.4, aqueous buffer, pH 7.4

COCCCC(=O)NCc1ccc(C(F)(F)F)cc1 [Polymorphic Form A, N-[4-(trifluoromethyl)benzyl]-4-methoxybutyramide]
solubility at 24 h [1, 5]: 160 µg/mL (≈ 582 µM) | solubility at 30 min [1, 5]: 124 µg/mL (≈ 450 µM) | solubility at 24 h [1, 6]: 142 µg/mL (≈ 515 µM) | solubility at 30 min [1, 6]: 134 µg/mL (≈ 486 µM) | solubility at 24 h [1, 7]: 164 µg/mL (≈ 597 µM) | solubility at 30 min [1, 7]: 106 µg/mL (≈ 385 µM) | Differences in solubility / dissolution properties between the two forms ([1]; dissolution tests on each polymorph): have not shown differences in the solubility properties | solubility at 24 h [1, 8]: 160 µg/mL (≈ 580 µM) | solubility at 30 min [1, 8]: 153 µg/mL (≈ 554 µM) | solubility at 24 h [1, 9]: 151 µg/mL (≈ 548 µM) | solubility at 30 min [1, 9]: 116 µg/mL (≈ 423 µM) | solubility at 24 h [1, 10]: 145 µg/mL (≈ 528 µM) | solubility at 30 min [1, 10]: 132 µg/mL (≈ 481 µM) | solubility at 24 h [1, 11]: 140 µg/mL (≈ 508 µM) | solubility at 30 min [1, 11]: 118 µg/mL (≈ 430 µM) | solubility at 24 h [1, 12]: 140 µg/mL (≈ 508 µM) | solubility at 30 min [1, 12]: 117 µg/mL (≈ 426 µM) | solubility at 24 h ([1]; water, Water): 164 µg/mL (≈ 596 µM) | solubility at 30 min ([1]; water, Water): 138 µg/mL (≈ 501 µM) | Thermodynamic stability, conversion of one form into the other [2]: thermodynamically stable, with no conversion of one into the other | Body temperature (rats [3]; 100 mg/kg single oral): not affected | Spontaneous locomotor activity (Irwin test) (rats [3]; 100 mg/kg single oral): transient decrease in spontaneous locomotor activity | Posture / neurobehavioural signs (Irwin test) (rats [3]; 1000 mg/kg single oral, all the effects were reversible): tip toe position, ataxic and subsequently a lying recumbent or flattened position | Effect on locomotion (Irwin test) (rats [3]; higher doses (300 and 1000 mg/kg) single oral, with myorelaxant effect and decrease in awareness): more marked and more long lasting | Body temperature (rats [3]; higher doses (300 and 1000 mg/kg), up to four hours): significant decrease in body temperature | Time taken to fall asleep and duration of the sleep (rats [4]; highest dose (1000 mg/kg) oral): significant decrease of the time taken to fall asleep and of the duration of the sleep | Sleep duration (rats [4]; intermediate dose (300 mg/kg) oral): slight decrease in sleep duration | Time taken to fall asleep and duration of the sleep (rats [4]; lowest dose (100 mg/kg) oral): No statistical significant effect | Immunosuppressant activity (Plaque Forming Cells) (immune system; 500 mg/kg oral, 28 days): clear-cut | Immunosuppressant activity (Plaque Forming Cells) (immune system; 150 and 250 mg/kg oral, 28 days): comparable borderline effect | Immunosuppressant activity (Plaque Forming Cells) (immune system; oral, 28 days, 150, 250 and 500 mg/kg): slight and not dose-dependent immunosuppressant activity | LD50 (Acute toxicity in mouse; ip, dose-range 200-1000): ~800 mg/kg | LD50 (Acute toxicity in mouse; oral, os, dose-range 2000-4000): > 4000 mg/kg | LD50 (Acute toxicity in rat; ip, dose-range 200-1000): ~800 mg/kg | LD50 (Acute toxicity in rat; oral, os, dose-range 2000-4000): > 4000 mg/kg | Genotoxicity, Ames test result (Salmonella typhimurium; S. typhimurium, in vitro, 3-500 μg/ml): Negative | Gene mutations by base pair changes or frameshifts (Salmonella typhimurium; TA 1535, TA 1537, TA 98, TA 100, TA102, 50 to 3000 μg/ml, with and without metabolic activation): did not induce gene mutations | Genotoxicity, Micronucleus test result (Rat (Bone marrow Cells)): no clastogenic activity; also recorded: Negative
